Test results from PMC6882492, “Synthesis and biological evaluation of novel thienopyrimidine derivatives as diacylglycerol acyltransferase 1 (DGAT-1) inhibitors” (Journal of Enzyme Inhibition and Medicinal Chemistry, 2019).

What was measured:
[1] = molecular target: T1, human recombinant DGAT1 enzyme expressed in insect cells (SF9 cells) (Homo sapiens, UniProt O75907); assay: DGAT-1 inhibition assay (IC50), SF9 microsomes; format: biochemical; settings: SF9 insect cells expressing human DGAT-1
T1 construct: made in house; host or cells: SF9 insect cells (microsomal membrane fraction)
T1 sequence (O75907 1-488): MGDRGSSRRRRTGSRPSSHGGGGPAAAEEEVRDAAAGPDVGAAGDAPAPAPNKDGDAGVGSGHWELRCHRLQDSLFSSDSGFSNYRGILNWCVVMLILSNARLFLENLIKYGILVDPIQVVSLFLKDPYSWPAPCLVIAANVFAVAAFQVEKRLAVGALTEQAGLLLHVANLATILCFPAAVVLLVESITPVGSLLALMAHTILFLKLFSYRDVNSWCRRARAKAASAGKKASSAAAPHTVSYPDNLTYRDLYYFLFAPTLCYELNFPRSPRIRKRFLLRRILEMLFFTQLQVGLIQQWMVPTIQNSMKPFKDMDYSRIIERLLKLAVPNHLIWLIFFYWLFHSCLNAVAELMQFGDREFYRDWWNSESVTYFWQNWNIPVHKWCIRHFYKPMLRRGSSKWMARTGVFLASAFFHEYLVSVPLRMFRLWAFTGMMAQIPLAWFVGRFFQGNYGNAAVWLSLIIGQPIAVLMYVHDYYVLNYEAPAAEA
Protocol: The activity of DGAT-1 inhibitors in vitro was evaluated by using a human recombinant DGAT1 enzyme expressed in insect cells (SF9 cells). SF9 cells were homogenised by washing them with DPBS (Dulbecco’s phosphate-buffered saline) and then suspending cell pellets with a tris buffer (250 mM sucrose; 10 mM Tris-HCl [pH 7.4]; proteinase inhibitor). The resulting mixture was centrifugally separated at 10,000 × g for 30 min to remove the cell debris remaining in the lower layer thereof, and was centrifugally separated at 100,000 × g for 60 min to obtain a microsomal membrane. Further, membrane fractions were resuspended by the tris buffer, and then stored at -80 °C.
The activity of DGAT1 was measured according to the reported method. Specifically, 0.0001 – 10 μΜ (final concentration, FC) of the test compounds were cultured at room temperature (25 °C) for 15 min with a […] of SF9 microsomal protein solution and 100 mM of MgCl2 solution, and were then further cultured at room temperature (25 °C) for 30 min after the addition of 100 μΜ (FC in 12.5% EtOH) of 1,2-dioleyl-sn-glycerol and 30 μΜ (final conc.) of [14]C-oleyl coenzyme A. The reaction was completed by the addition of 300 μL of a mixed solution of 2-propanol/heptane (7:1), and radioactive triglyceride was separated from an organic solvent layer by using 200 μL of heptane and 200 μL of a 0.1 M carbonate buffer (pH 9.5). The amount of triglyceride was measured by liquid scintillography (Perkin Elmer, USA) after mixing with an organic solvent and an equivalent amount of scintillation solvent (MicroScint-O, Perkin Elmer, USA). The effects of inhibiting DGAT1 were calculated as percent in comparison with a control material.
The activities of synthesised compounds were evaluated using SF9 insect cells expressing human DGAT-1[22]. A potent DGAT-1 inhibitor, LCQ-908 (2 or pradigastat) was used as a positive control. […] The calculated lowest energy conformation model of 14c provided that the distance between the terminal carboxylic acid and NH of urea was over 16 Å, which may result in reduced activity. […]

CYP2C9 = CYP2C9 (Homo sapiens, UniProt P11712); assay: CYP inhibition assay CYP2C9; format: in vitro ADME; settings: fluorescence detection method; read-out: CYPs enzyme inhibition, IC50, CYP2C9
CYP2C9, sequence (P11712 whole entry): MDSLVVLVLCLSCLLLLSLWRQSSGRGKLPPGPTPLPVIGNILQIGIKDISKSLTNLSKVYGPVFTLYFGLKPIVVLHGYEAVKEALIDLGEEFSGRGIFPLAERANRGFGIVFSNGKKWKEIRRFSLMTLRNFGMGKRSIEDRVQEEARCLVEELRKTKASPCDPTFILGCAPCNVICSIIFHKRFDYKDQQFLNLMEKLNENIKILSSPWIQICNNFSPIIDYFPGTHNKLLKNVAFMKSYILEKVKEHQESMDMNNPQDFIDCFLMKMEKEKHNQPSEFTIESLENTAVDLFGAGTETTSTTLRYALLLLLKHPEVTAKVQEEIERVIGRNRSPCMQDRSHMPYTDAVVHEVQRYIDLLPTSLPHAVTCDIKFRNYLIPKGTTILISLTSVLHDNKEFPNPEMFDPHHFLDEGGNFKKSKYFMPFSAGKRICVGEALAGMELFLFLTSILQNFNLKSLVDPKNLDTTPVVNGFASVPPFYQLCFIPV

CYP2D6 = CYP2D6 (Homo sapiens, UniProt P10635); assay: CYP inhibition assay CYP2D6; format: in vitro ADME; settings: fluorescence detection method; read-out: CYPs enzyme inhibition, IC50, CYP2D6
CYP2D6, sequence (P10635 whole entry): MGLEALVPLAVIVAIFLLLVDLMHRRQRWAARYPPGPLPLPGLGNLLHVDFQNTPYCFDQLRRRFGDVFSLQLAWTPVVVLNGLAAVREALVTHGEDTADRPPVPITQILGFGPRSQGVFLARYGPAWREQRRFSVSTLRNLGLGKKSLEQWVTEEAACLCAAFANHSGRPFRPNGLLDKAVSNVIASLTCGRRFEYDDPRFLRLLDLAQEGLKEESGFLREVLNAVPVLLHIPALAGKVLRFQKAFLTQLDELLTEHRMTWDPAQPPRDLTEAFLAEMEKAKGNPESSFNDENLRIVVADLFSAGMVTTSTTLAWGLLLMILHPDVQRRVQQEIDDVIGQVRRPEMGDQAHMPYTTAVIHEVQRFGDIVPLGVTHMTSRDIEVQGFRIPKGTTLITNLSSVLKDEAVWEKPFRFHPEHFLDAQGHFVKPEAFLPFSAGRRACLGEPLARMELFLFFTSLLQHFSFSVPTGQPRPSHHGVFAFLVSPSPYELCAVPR

plasma TAG level = assay: Oral lipid tolerance test (OLTT), dog; format: in vivo, Beagle dogs; settings: dogs, 17a 1 mg/kg po, n = 2
Protocol: Beagle dogs (9 months old, n = 2/group) were obtained from Woojung Bio Inc. (Republic of Korea) were fasted for 16 h and received heavy cream (2.7 mL/kg), glucose (1 g/kg), water (5.3 mL/kg), and acetaminophen (20 mg/kg p.o.) 1 h after compound administration. Blood samples were collected at –0.5, 0, 1, 2, and 4 h.
To determine in vivo efficacy, we evaluated the activity of 17a against serum TAG level induced by the oral administration of corn oil (oral lipid tolerance test, OLTT; Figures 3 and 4), since intestinal targeted DGAT-1 inhibition results in a reduced serum TAG level. 17a was orally administered to ICR mice at 3 mg/kg or to dogs at 1 mg/kg before administration of corn oil.
Figure 4. Effect of 17a in a canine oral lipid tolerance test (n = 2, *p < .05; ***p < .001). The dog was treated with 17a (po. 1 mg/kg) or 2 (po. 1 mg/kg) before oral administration of corn oil. Vehicle for 2: 0.5% methylcellulose/0.5% Tween80 in distilled water, vehicle for 17a: 0.5% Tween80 in distilled water.

O=C([O-])C[C@H]1CC[C@@H](c2csc3c(-c4ccc(NC(=O)Nc5cccc(Cl)c5)cc4)ncnc32)CC1.[Na+] [Compound 17a, Sodium cis-2–(4–(4-(4-(3–(3-chlorophenyl)ureido)phenyl)thieno[3,2-d]pyrimidin-7-yl)cyclohexyl)acetate]
IC50 [1]: 74 nM
IC50 (CYP2C9): 2900 nM
IC50 (CYP2D6): 8700 nM
Reduction of TAG in OLTT (plasma TAG level): significant reduction of TAG
